These results are taken from patent US20250186397A1, “COMPOUNDS FOR THE USE IN THE TREATMENT OF MOOD DISORDERS” (Kanna Health Ltd, priority 2022, published 2025).

The subject of one assay is zebrafish. The settings on record: isolated alkaloids, Maphanga et al., 2022; cited from earlier work.
The target in assay [1] is T1, human serotonin transporter (Homo sapiens, UniProt P31645).
T1 construct: expressed in transfected cells; host or cells: CHO cells
Kind of assay: SERT assay, [3H] serotonin uptake in transfected CHO cells. In kind it is cell-based. The note with it: CHO cells with human serotonin transporter, 180 min. As to the method: Test compounds (conc range), reference compound or vehicle control were incubated for 180 min at room temperature with CHO cells stably transfected with the human serotonin transporter (5×10^3 cells/well) with 0.15 μM [3H] serotonin in the presence or absence of the test or reference compound in buffer containing (in mM); Tris/HCl (pH 7.4) (5), HEPES/Tris (7.5), NaCl (120), KCl (5.4), CaCl2) (1.2), MgSO4 (1.2), Glucose (5) and ascorbic acid (1). Following incubation, [3H] serotonin uptake was quantified by a standard scintillation counting method.
(§1) Data were expressed as the mean of two technical replicates for each data point, and percent inhibition calculated relative to maximum inhibition observed in the presence of the reference comparator rolipram for PDE-4 assays, and imipramine for serotonin assays.

The target of assay [2] is human recombinant PDE-4B1 (Homo sapiens, UniProt Q07343). Description: PDE4-B1 assay (SPA). In kind it is biochemical. The settings on record: human recombinant enzyme, 450 nM cAMP. As to the method:
(§2) Test compounds (conc range), reference compound or vehicle control were added to assay buffer containing (in mM); Tris/HCl, pH 7.4 (40), MgCl2 (8) and EGTA/NaOH (1.7), containing 450 nM cAMP (450 nM) and 0.25 μCi (PDE-4B1) or 0.0125 μCi (PDE-4D2) [^3H] CAMP. 20 mins after addition of human recombinant PDE-4B1 (1.2 IEU) or PDE-4D2 (1.5 IEU), SPA beads were added and incubated at 22° C. for a further 30 mins. [^3H]5′AMP was quantified by a standard scintillation counting method.
as §1

The target of assay [3] is human recombinant PDE-4D2 (Homo sapiens, UniProt Q08499). Description: PDE4-D2 assay (SPA). The note with it: human recombinant enzyme, 450 nM cAMP; read-out: IC50 PDE-4D2. In kind it is biochemical. The procedure:
as §2, §1

pIC50: −log10 of the molar value.

A word on the pIC50: it is the IC50 on a negative log10 scale, so that one unit is a factor of ten.

human recombinant PDE-4B1, sequence (Q07343 whole entry): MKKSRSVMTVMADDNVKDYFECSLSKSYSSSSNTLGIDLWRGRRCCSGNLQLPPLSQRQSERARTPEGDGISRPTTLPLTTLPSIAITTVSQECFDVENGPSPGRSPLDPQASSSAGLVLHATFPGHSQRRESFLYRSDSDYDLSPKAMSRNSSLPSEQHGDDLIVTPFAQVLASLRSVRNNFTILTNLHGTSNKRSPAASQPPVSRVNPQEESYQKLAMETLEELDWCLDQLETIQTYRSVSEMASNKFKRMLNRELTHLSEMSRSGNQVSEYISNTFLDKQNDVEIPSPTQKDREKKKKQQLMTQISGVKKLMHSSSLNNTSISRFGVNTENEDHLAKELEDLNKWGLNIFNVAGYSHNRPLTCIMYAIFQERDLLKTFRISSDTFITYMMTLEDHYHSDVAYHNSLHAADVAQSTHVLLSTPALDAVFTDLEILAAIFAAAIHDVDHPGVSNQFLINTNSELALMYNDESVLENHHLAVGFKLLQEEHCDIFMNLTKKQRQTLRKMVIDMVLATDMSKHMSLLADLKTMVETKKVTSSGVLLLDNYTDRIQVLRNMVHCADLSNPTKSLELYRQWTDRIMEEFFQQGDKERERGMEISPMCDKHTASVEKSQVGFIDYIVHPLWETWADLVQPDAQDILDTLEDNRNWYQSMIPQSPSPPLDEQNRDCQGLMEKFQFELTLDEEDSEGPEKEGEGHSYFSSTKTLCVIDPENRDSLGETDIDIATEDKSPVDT
T1 sequence (P31645 whole entry): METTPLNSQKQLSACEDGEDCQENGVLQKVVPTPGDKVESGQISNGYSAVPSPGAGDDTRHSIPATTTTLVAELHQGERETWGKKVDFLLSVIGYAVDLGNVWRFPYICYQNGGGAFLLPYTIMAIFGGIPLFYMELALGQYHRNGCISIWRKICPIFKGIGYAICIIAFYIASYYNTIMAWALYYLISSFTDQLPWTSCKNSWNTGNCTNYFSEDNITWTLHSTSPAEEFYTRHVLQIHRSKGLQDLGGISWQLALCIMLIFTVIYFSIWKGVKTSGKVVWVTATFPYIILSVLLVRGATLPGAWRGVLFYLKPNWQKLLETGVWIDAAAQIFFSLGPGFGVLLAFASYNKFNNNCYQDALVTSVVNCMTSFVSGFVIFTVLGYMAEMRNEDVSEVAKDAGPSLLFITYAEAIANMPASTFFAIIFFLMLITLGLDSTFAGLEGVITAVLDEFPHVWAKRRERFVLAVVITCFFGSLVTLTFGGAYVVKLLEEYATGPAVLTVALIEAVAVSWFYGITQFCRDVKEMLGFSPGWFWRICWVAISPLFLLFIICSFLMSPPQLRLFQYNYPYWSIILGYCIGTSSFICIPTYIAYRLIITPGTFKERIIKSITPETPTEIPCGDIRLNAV
human recombinant PDE-4D2, sequence (Q08499 303-809 limits assumed): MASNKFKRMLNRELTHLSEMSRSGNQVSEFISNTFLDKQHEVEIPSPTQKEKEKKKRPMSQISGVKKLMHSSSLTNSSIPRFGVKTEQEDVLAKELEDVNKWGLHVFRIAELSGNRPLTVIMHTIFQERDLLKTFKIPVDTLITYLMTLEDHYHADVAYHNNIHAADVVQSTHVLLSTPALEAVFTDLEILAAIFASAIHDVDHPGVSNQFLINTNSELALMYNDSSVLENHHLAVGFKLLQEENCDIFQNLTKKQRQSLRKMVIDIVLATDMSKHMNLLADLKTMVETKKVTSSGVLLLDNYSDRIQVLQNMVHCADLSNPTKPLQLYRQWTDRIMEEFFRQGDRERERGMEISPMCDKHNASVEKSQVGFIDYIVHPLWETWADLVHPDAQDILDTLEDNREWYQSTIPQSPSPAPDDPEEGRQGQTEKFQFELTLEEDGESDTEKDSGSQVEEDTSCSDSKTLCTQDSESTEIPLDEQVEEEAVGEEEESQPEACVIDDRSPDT

For the compound `COc1ccc([C@@]23CCC(=O)C[C@@H]2N(C)CC3)cc1OC` [mesembrine], the “effect in zebrafish model of anxiety” value in the assay on zebrafish was “anxiolytic-like effect”. Regarding `COc1ccc(C2CNC(=O)C2)cc1OC1CCCC1` (centres unmarked) [Rolipram, reference compound], the pIC50 in assay [1] was 7.63. As for `CN(C)CCCN1c2ccccc2CCc2ccccc21` [Imipramine, reference compound], the pIC50 is 5.80 in assay [2] and 6.52 to 6.84 in assay [3]. In the case of `COc1ccc([C@@]23C=CC(=O)C[C@@H]2N(C)CC3)cc1OC` [mesembrenone], the “effect in zebrafish model of anxiety” value with zebrafish is given as “anxiolytic-like effect”.
